Data taken from US20060286130A1, “Sterile gelling agents” (priority 2005, published 2006).

Key:
[1] = Sterilization by gamma irradiation, appearance / degradation of the gelling agent; type: physicochemical; settings: 25 KGy, 60Cobalt source
Description: In an additional embodiment of the invention, the sterile dried bulk gelling agent is subjected to sterilization by gamma irradiation. […] Other materials in the gelled polymeric dispersion can be processed by other techniques as described above and generally known in the art of preparation of sterile dosage forms.
Sorbitan monostearate prepared in Example 1 was exposed to gamma irradiation at a dose of 25 KGy using a ^60Cobalt source at a contract irradiation laboratory. A dose of 25 KGy is accepted internationally to be sufficient to ensure sterility (British Pharmacopoeia).

[2] = Sterilization by dry heat, appearance of the material; type: physicochemical; settings: 180° C. for 2 hours
Description: Sorbitan monostearate (Sanyo, Japan) was subjected to sterilization by dry heat at a temperature of 180° C. for 2 hours. […] The material thus obtained though it would pass the test for sterility renders the final product unacceptable for pharmiaceutical use because of the dark brown color it imparts.

Substance	change in appearance after gamma irradiation [1]	appearance after sterilization by dry heat [2]
Sorbitan monostearate [listing 1 of 2 here]	no change in appearance	
Sorbitan monostearate [listing 2 of 2 here]		dark brown colored mass
